Tests used:
[1] = test system: kochia; assay: Test C postemergence; assay type: in vivo, Bassia scoparia; conditions: 10 days, 0 to 100 scale (0 no effect, 100 complete control)
How it was run: (§1)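 Seeds in loam–sand blend received preemergence directed soil spray of test chemicals in non-phytotoxic solvent with surfactant; postemergence treatment was applied at one- to two-leaf stage (2–10 cm). After 10 days in greenhouse, injury rated visually versus untreated controls, 0 (no effect) to 100 (complete control).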

[2] = test system: wheat; assay: Test C postemergence; assay type: in vivo, Triticum aestivum; conditions: 10 days, 0 to 100 scale (0 no effect, 100 complete control)
How it was run: as §1

[3] = test system: barnyardgrass; assay: Test C postemergence; assay type: in vivo, Echinochloa crusgalli; conditions: 10 days, 0 to 100 scale (0 no effect, 100 complete control)
How it was run: as §1

[4] = test system: blackgrass; assay: Test C preemergence; assay type: in vivo, Alopecurus myosuroides
How it was run: as §1

[5] = test system: corn; assay: Test C preemergence; assay type: in vivo, Zea mays
How it was run: as §1

[6] = test system: galium; assay: Test C postemergence; assay type: in vivo, Galium aparine; conditions: 10 days, 0 to 100 scale (0 no effect, 100 complete control)
How it was run: as §1

[7] = test system: ragweed; assay: Test C postemergence; assay type: in vivo, Ambrosia artemisiifolia; conditions: 10 days, 0 to 100 scale (0 no effect, 100 complete control)
How it was run: as §1

[8] = test system: wheat; assay: Test C preemergence; assay type: in vivo, Triticum aestivum
How it was run: as §1

[9] = test system: barnyardgrass; assay: Test D flooded paddy test; assay type: in vivo, Echinochloa crus-galli; conditions: 250 g ai/ha, applied to paddy water, visual rating after 13 to 14 days, scale 0 to 100 (0 no effect, 100 complete control)
How it was run: (§2)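 Plants at the 2-leaf stage were grown in pots flooded to 3 cm, and compound was applied directly into the paddy water, with depth kept throughout. After 13–14 days in a greenhouse, injury was rated visually against untreated controls on a 0–100 scale (100 = complete control); a dash means not tested.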

[10] = test system: corn; assay: Test C postemergence; assay type: in vivo, Zea mays; conditions: 10 days, 0 to 100 scale (0 no effect, 100 complete control)
How it was run: as §1

[11] = test system: foxtail, giant; assay: Test C preemergence; assay type: in vivo, Setaria faberi
Text: (§3) Seeds of plant species selected from barnyardgrass (Echinochloa crusgalli), blackgrass (Alopecurus myosuroides), corn (Zea mays), foxtail, giant (giant foxtail, Setaria faberi), green foxtail (Setaria viridis), goosegrass (Eleusine indica), kochia (Bassia scoparia), oat, wild (wild oat, Avena fatua), pigweed, palmer (palmer amaranth, palmer pigweed, Amaranthus palmeri), Pigweed, Redroot (redroot pigweed, Amaranthus retroflexus), ragweed (common ragweed, Ambrosia artemisiifolia), ryegrass, Italian ([…] ryegrass, Lolium multiflorum), soybean (Glycine max), and wheat (Triticum aestivum) were planted into a blend of loam soil and sand and treated preemergence with a directed soil spray using test chemicals formulated in a non-phytotoxic solvent mixture which included a surfactant. At the same time, plants selected from these crops and weed species and also galium (catchweed bedstraw, Galium aparine) and horseweed (Erigeron canadensis) were planted in pots containing the same blend of loam soil and sand and treated with postemergence applications of test chemicals formulated in the same manner. Plants ranged in height from 2 to 10 cm and were in the one- to two-leaf stage for the postemergence treatment. Treated plants and untreated controls were maintained in a greenhouse for 10 days, after which time all treated plants were compared to untreated controls and visually evaluated for injury. Plant response ratings, summarized in Table C, are based on a 0 to 100 scale where 0 is no effect and 100 is complete control. A dash (-) response means no test result.

[12] = test system: pigweed, palmer; assay: Test C postemergence; assay type: in vivo, Amaranthus palmeri; conditions: 10 days, 0 to 100 scale (0 no effect, 100 complete control)
How it was run: as §1

[13] = test system: oat, wild; assay: Test C postemergence; assay type: in vivo, Avena fatua; conditions: 10 days, 0 to 100 scale (0 no effect, 100 complete control)
How it was run: as §1

[14] = test system: pigweed, palmer; assay: Test C preemergence; assay type: in vivo, Amaranthus palmeri
How it was run: as §1

[15] = test system: soybean; assay: Test C postemergence; assay type: in vivo, Glycine max; conditions: 10 days, 0 to 100 scale (0 no effect, 100 complete control)
How it was run: as §1

[16] = test system: sedge, umbrella; assay: Test D flooded paddy test; assay type: in vivo, Cyperus difformis; conditions: 250 g ai/ha, applied to paddy water, visual rating after 13 to 14 days, scale 0 to 100 (0 no effect, 100 complete control)
How it was run: as §2

[17] = test system: barnyardgrass; assay: Test C preemergence; assay type: in vivo, Echinochloa crusgalli
How it was run: as §1

[18] = test system: horseweed; assay: Test C postemergence; assay type: in vivo, Erigeron canadensis; conditions: 10 days, 0 to 100 scale (0 no effect, 100 complete control)
How it was run: as §1

[19] = test system: ducksalad; assay: Test D flooded paddy test; assay type: in vivo, Heteranthera limosa; conditions: 250 g ai/ha, applied to paddy water, visual rating after 13 to 14 days, scale 0 to 100 (0 no effect, 100 complete control)
How it was run: as §2

[20] = test system: rice; assay: Test D flooded paddy test; assay type: in vivo, Oryza sativa; conditions: 250 g ai/ha, applied to paddy water, visual rating after 13 to 14 days, scale 0 to 100 (0 no effect, 100 complete control)
How it was run: as §2

[21] = test system: ryegrass, Italian; assay: Test C preemergence; assay type: in vivo, Lolium multiflorum
How it was run: as §1

[22] = test system: blackgrass; assay: Test C postemergence; assay type: in vivo, Alopecurus myosuroides; conditions: 10 days, 0 to 100 scale (0 no effect, 100 complete control)
How it was run: as §1

[23] = test system: ragweed; assay: Test C preemergence; assay type: in vivo, Ambrosia artemisiifolia
How it was run: as §1

[24] = test system: kochia; assay: Test C preemergence; assay type: in vivo, Bassia scoparia
How it was run: as §1

[25] = test system: oat, wild; assay: Test C preemergence; assay type: in vivo, Avena fatua
How it was run: as §1

[26] = test system: foxtail, giant; assay: Test C postemergence; assay type: in vivo, Setaria faberi; conditions: 10 days, 0 to 100 scale (0 no effect, 100 complete control)
Text: as §3

[27] = test system: soybean; assay: Test C preemergence; assay type: in vivo, Glycine max
How it was run: as §1

[28] = test system: ryegrass, Italian; assay: Test C postemergence; assay type: in vivo, Lolium multiflorum; conditions: 10 days, 0 to 100 scale (0 no effect, 100 complete control)
How it was run: as §1

[29] = 500 g ai/ha, preemergence, 0 to 100 scale (0 no effect, 100 complete control)
[30] = Preemergence, 125 g ai/ha, 0 to 100 scale, 0 no effect, 100 complete control

SMILES: CC(C)c1ncn(-c2cc(C(=O)N3CC(C(F)(F)F)Oc4c(Cl)cccc43)ccn2)n1 (single isomer, unassigned) [Compound 331]
- Plant response rating, Kochia ([1]; 500 g ai/ha, postemergence): 70
- Plant response rating, Kochia ([1]; Postemergence, 125 g ai/ha): 40
- Plant response rating, Wheat ([2]; 500 g ai/ha, postemergence): 20
- Plant response rating, Wheat ([2]; Postemergence, 125 g ai/ha): 10
- Plant response rating, Barnyardgrass ([3]; 500 g ai/ha, postemergence): 30
- Plant response rating, Barnyardgrass ([3]; Postemergence, 125 g ai/ha): 10
- Blackgrass plant response rating [4, 29]: 70
- Plant response rating, Blackgrass [4, 30]: 20
- Corn plant response rating [5, 29]: 0
- Plant response rating, Corn [5, 30]: 0
- Plant response rating, Galium ([6]; 500 g ai/ha, postemergence): 50
- Plant response rating, Galium ([6]; Postemergence, 125 g ai/ha): 50
- Plant response rating, Ragweed ([7]; 500 g ai/ha, postemergence): 0
- Plant response rating, Ragweed ([7]; Postemergence, 125 g ai/ha): 0
- Wheat plant response rating [8, 29]: 0
- Plant response rating, Wheat [8, 30]: 0
- Plant response rating, Barnyardgrass (Flood) [9]: 0
- Plant response rating, Corn ([10]; 500 g ai/ha, postemergence): 40
- Plant response rating, Corn ([10]; Postemergence, 125 g ai/ha): 10
- Foxtail, Giant plant response rating [11, 29]: 60
- Plant response rating, Foxtail, Giant [11, 30]: 20
- Plant response rating, Pigweed, Palmer ([12]; 500 g ai/ha, postemergence): 50
- Plant response rating, Pigweed, Palmer ([12]; Postemergence, 125 g ai/ha): 20
- Plant response rating, Oat, Wild ([13]; 500 g ai/ha, postemergence): 0
- Plant response rating, Oat, Wild ([13]; Postemergence, 125 g ai/ha): 0
- Pigweed, Palmer plant response rating [14, 29]: 100
- Plant response rating, Pigweed, Palmer [14, 30]: 30
- Plant response rating, Soybean ([15]; 500 g ai/ha, postemergence): 100
- Plant response rating, Soybean ([15]; Postemergence, 125 g ai/ha): 90
- Plant response rating, Sedge, Umbrella (Flood) [16]: 0
- Barnyardgrass plant response rating [17, 29]: 0
- Plant response rating, Barnyardgrass [17, 30]: 0
- Plant response rating, Horseweed ([18]; 500 g ai/ha, postemergence): 0
- Plant response rating, Horseweed ([18]; Postemergence, 125 g ai/ha): 0
- Plant response rating, Ducksalad (Flood) [19]: 0
- Plant response rating, Rice (Flood) [20]: 0
- Ryegrass, Italian plant response rating [21, 29]: 60
- Plant response rating, Ryegrass, Italian [21, 30]: 60
- Plant response rating, Blackgrass ([22]; 500 g ai/ha, postemergence): 20
- Plant response rating, Blackgrass ([22]; Postemergence, 125 g ai/ha): 0
- Ragweed plant response rating [23, 29]: 0
- Plant response rating, Ragweed [23, 30]: 0
- Kochia plant response rating [24, 29]: 20
- Plant response rating, Kochia [24, 30]: 0
- Oat, Wild plant response rating [25, 29]: 20
- Plant response rating, Oat, Wild [25, 30]: 0
- Plant response rating, Foxtail, Giant ([26]; 500 g ai/ha, postemergence): 40
- Plant response rating, Foxtail, Giant ([26]; Postemergence, 125 g ai/ha): 30
- Soybean plant response rating [27, 29]: 0
- Plant response rating, Soybean [27, 30]: 0
- Plant response rating, Ryegrass, Italian ([28]; 500 g ai/ha, postemergence): 10
- Plant response rating, Ryegrass, Italian ([28]; Postemergence, 125 g ai/ha): 0
